Reference: US20260191793A1, “HBV SPECIFIC EXOSOMES AND USES THEREOF” (priority 2022, published 2026)
Entries after “also recorded” stand apart in the source; their conditions may differ.

Experiments:
HBV DNA = assay: Mismatch sensitive T7 endonuclease 1 (T7E1) assay in HepDE19 cells; type: cell-based, Hepatitis B virus (HBV); conditions: HepDE19 cells transfected for 3 days, T7E1 digestion of PCR products
Description: DNA cleavage by CRISPR/Cas9 results in double-strand breaks (DSBs), which are repaired primarily by the non-homologous end-joining (NHEJ) pathway, resulting in indel mutations and transcriptionally active episomal variants. Thus, detecting DNA cleavage and indel mutations following CRISPR/Cas9-mediated DNA damage and repair is important for confirming its gene-editing effects. To validate the capability of the synthetic gRNA/Cas9 RNPs to introduce indel mutation and cleavage in HBV DNA in HepDE19 cells, a mismatch sensitive T7 endonuclease (T7E1) assay-was performed, following transfection of HepDE19 cells with gRNA5, gRNA9, gRNA5+gRNA9, or gRNAc RNPs. This assay allows for the detection of specific cleavage sites or indel mutations in the target gene (HBV DNA) in the treated cells. The indel mutagenesis was determined based on the DNA fragments detected after the gRNA/Cas9-mediated cleavage of the HBV DNA following T7E1 digestion of the specific PCR products.
The HBV DNA sequences surrounding gRNA-binding sites were amplified by PCR. […]
DNA cleavage by CRISPR/Cas9 results in double-strand breaks (DSBs), which are primarily repaired by the non-homologous end joining (NHEJ) repair pathway, resulting in gene mutations. […] The mutagenesis was determined based on the DNA fragments detected after the gRNA/Cas9-mediated cleavage of the HBV DNA following T7E1 digestion.

HepDE19 cells = assay: Cytotoxicity, cell viability by MTT assay; type: cell-based, human; conditions: for cell viability in the presence of TNFα: Tet-free medium, TNFα (10 ng/ml); for cell viability (MTT): with or without Tet-free medium, 24 h, vs non-transfected (NT) control
Procedure: The MTT assay was used to determine metabolic activity and cell viability as an indicator of cellular cytotoxicity. Twenty-four hours after gRNA/Cas9 transfection, the cells were cultured in a Tet-free medium for an additional 24 h. For measuring cell proliferation, the cells were cultured in the Tet-free medium for an additional 3 days in a 96-well plate. The culture medium (100 μl) was changed and MTT reagent (0.5 mg/ml) was added at 37° C. for 4 h, followed by measuring the absorbance at 550-690 nm using a spectrophotometer (BioTek SYNERGY H1).
NAD (P) H-dependent cellular oxidoreductase enzymes reduce the tetrazolium MTT (3-(4,5-Dimethylthiazol 2-yl)-2,5-diphenyltetrazolium bromide) salt into insoluble formazan, which indicates the overall survival and metabolic activity of a living cell. To determine whether gRNA5/Cas9 or gRNA9/Cas9 exert any cytotoxic effects on HepDE19 cells, cell viability after transfection with gRNA5 or gRNA9 in the presence or absence of Tet-free medium (for HBV induction) for 24 h was measured using the MTT assay. […] Since HBV itself is not a direct cytopathic pathogen but can induce cell injury via immune-mediated mechanisms, the viability of transfected and non-transfected HepDE19 cells cultured in a Tet-free medium in the presence of TNFα, which can induce apoptotic cell death, was observed. […] Moreover, flow cytometry analysis was performed to detect the cell surface apoptotic marker annexin V and the loss of the plasma membrane integrity (measured by up taking 7-ADD). Cell apoptosis was then evaluated by measuring the Av and 7ADD levels in gRNA-transfected HepDE19 cells with or without Tet-free medium. No significant differences in cell apoptosis among the different treatments were observed (FIG. 16C). Finally, the proliferative ability of HepDE19 cells with or without gRNA transfection for 3 days was assessed, using the MTT assay. No significant differences in cell proliferation were found (FIG. 16D).

Row | Sequence | cleaved products / DSBs in HBV DNA after T7E1 treatment (HBV DNA) | cytotoxicity to hepatocytes (overall conclusion) (HepDE19 cells) | cell viability in the presence of TNFα (HepDE19 cells) | cell viability (MTT) (HepDE19 cells) | cell viability (MTT) (HepDE19 cells; listed as gRNA5/Cas9) | cell viability (MTT) (HepDE19 cells; listed as gRNA9/Cas9)
1 | GTTATCGCTGGATGTGTCTGNGG (guide GUUAUCGCUGGAUGUGUCUGNGG; complexed with Cas9 protein, chemistry not fully specified) [gRNA5, tested as synthetic gRNA/Cas9 RNP] | cleaved products were observed; also recorded: DSBs were introduced | not cytotoxic | No cytotoxic effects | no significant differences in the viability | no differences in the viability | –
2 | GGTCTCCATGCGACGTGCAGNGG [gRNA9] | cleaved products were observed; also recorded: DSBs were introduced | not cytotoxic | No cytotoxic effects | no significant differences in the viability | – | no differences in the viability
